“Also recorded” adds a separate entry of the source. Where a SMILES comes first, the peptide text is derived from it. [ ]: non-standard residue; d: D form. The star is where a group is joined. Sta = CC(C)C[C@H](N)[C@@H](O)CC(=O)O; Isovaleryl = CC(C)CC(=O)*; Cbz = O=C(OCc1ccccc1)*; CH2F = FC*
Assays:
SARS-CoV S protein [1] = assay: microbe, parasite or virus in culture; format: cell-based
VSV-G = format: cell-based
MLV-Amphotropic Env = format: cell-based
EboV GP glycoprotein = format: cell-based
human cathepsin L = human cathepsin L (Homo sapiens, UniProt P07711); format: biochemical
human cathepsin L, sequence (P07711 114-333): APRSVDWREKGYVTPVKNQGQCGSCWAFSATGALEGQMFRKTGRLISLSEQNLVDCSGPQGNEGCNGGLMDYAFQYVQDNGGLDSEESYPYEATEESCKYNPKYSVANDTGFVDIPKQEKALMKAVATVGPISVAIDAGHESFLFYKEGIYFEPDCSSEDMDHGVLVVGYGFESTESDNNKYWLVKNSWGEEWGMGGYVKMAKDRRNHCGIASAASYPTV

thrombin = settings: read-out: Ki, inhibition of thrombin; cited from earlier work
caspase 6 [2] = target: T1, caspase 6 (Homo sapiens, UniProt P55212); assay: biochemical
T1 sequence (P55212 24-179 limits assumed): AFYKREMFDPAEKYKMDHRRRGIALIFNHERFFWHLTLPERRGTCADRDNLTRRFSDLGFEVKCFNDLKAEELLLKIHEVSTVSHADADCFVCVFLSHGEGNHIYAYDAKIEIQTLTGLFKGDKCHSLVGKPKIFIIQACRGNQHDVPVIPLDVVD
T1 sequence (P55212 194-293 limits assumed): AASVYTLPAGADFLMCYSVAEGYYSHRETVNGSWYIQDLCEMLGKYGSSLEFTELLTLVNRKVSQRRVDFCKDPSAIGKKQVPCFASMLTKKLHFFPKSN

caspase 6 [3] = target: T1, caspase 6; format: biochemical
caspase 2 [4] = target: T2, caspase 2 (Homo sapiens, UniProt P42575); assay: biochemical
T2 sequence (P42575 170-325 limits assumed): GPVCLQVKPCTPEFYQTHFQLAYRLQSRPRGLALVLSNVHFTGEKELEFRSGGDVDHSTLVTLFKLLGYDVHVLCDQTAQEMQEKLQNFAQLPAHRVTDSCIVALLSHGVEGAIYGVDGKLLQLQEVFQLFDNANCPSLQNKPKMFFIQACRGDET
T2 sequence (P42575 348-452 limits assumed): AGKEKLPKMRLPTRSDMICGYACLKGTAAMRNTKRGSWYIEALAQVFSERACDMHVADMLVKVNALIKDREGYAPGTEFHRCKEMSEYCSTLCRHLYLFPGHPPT

caspase 2 [5] = target: T2, caspase 2; format: biochemical
caspase 4 [6] = target: T3, caspase 4 (Homo sapiens, UniProt P49662); format: biochemical
T3 sequence (P49662 81-270 limits assumed): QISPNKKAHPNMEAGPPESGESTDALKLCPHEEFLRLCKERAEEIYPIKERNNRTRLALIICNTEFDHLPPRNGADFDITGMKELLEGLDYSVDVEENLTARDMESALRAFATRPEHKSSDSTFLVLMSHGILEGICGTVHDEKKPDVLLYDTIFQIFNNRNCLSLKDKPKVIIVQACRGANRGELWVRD
T3 sequence (P49662 290-377 limits assumed): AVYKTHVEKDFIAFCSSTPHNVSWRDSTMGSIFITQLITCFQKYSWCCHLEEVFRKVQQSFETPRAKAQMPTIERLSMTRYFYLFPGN

caspase 4 [7] = target: T3, caspase 4; assay: biochemical
ASLV-A Env = format: cell-based
SARS-CoV (strain Tor2) = format: cell-based
SARS-CoV S protein [8] = format: cell-based
[9] = IC50 against the three caspases (range stated for all)

Compound: CCCNC(=O)[C@H]1O[C@@H]1C(=O)N[C@H](C(=O)N1CCC[C@H]1C(=O)O)[C@@H](C)CC [CA-074]
- effect on infection of HIV-luc(SARS S) (SARS-CoV S protein [1]): did not dramatically affect infection
- effect on infection of HIV-luc(VSV-G) (VSV-G): did not dramatically affect infection

Compound: CC(C)[C@H](NC(=O)OCc1ccccc1)C(=O)N[C@H](C=O)Cc1ccccc1 [MDL 28170, Z-Val-Phe-CHO] (Cbz-Val-Phe-aldehyde)
- effect on MLV pseudotype entry (MLV-Amphotropic Env): not inhibited
- effect on SARS CoV S pseudotype entry/infection (SARS-CoV S protein [1]): inhibits entry; also recorded: potently and specifically inhibits pseudotype infection
- IC50 (SARS-CoV S protein [1]; read-out: IC50, pseudotype virion entry into cells): ~0.1 µM
- effect on EboV GP pseudotype entry/infection (EboV GP glycoprotein): inhibits entry; also recorded: potently and specifically inhibits pseudotype infection
- hit in cathepsin L microarray screen (human cathepsin L): inhibitors and hits
- effect on VSV pseudotype entry (VSV-G): not inhibited

Compound: CC(C)C[C@H](NC(=O)[C@H](CC(C)C)NC(=O)[C@H](CC(C)C)NC(=O)OCc1ccccc1)C(=O)CF [Z-LLL-FMK, Z-leu-leu-leu-fluoromethyl ketone] (Cbz-Leu-Leu-Leu-CH2F)
- effect on infection of HIV-luc(SARS S) (SARS-CoV S protein [1]): efficiently inhibited infection
- effect on infection of HIV-luc(VSV-G) (VSV-G): but not HIV-luc(VSV-G)

Compound: Cl.N [ammonium chloride]
- effect on infection mediated by S protein (SARS-CoV S protein [1]): dramatically reduced infection
- effect on infection mediated by VSV-G (VSV-G): dramatically reduced infection

Compound: N=C(N)c1ccccc1 [benzamidine]
- Ki (thrombin): 300 to 1000 µM

Compound: CC1=NN(c2ccccc2)C(=O)C1=NNc1c(Br)cc(Br)cc1Br [compound 1, 5-methyl-2-phenyl-4-[(2,4,6-tribromo-phenyl)-hydrazono]-2,4-dihydro-pyrazol-3-one]
- inhibition (caspase 6 [2]): 100%
- IC50 (caspase 6 [2]; IC50 against caspase 6): ~5000 µM
- IC50 (caspase 6 [2]; [9]): 500 to 5000 µM
- substrate conversion in microarray screen (caspase 6 [3]): low substrate conversion
- inhibition (caspase 2 [4]): 100%
- IC50 (caspase 2 [4]; IC50 against caspase 2): ~5000 µM
- IC50 (caspase 2 [4]; [9]): 500 to 5000 µM
- substrate conversion in microarray screen (caspase 2 [5]): reduced substrate conversion
- substrate conversion in microarray screen (caspase 4 [6]): reduced substrate conversion
- inhibition (caspase 4 [7]): 100%
- IC50 (caspase 4 [7]; IC50 against caspase 4): ~500 µM
- IC50 (caspase 4 [7]; [9]): 500 to 5000 µM

Compound: CC(=O)N[C@@H](CC(C)C)C(=O)N[C@@H](CC(C)C)C(=O)N[C@H](C=O)CCCNC(=N)N [leupeptin]
- effect on infection mediated by MLV-Amphotropic Env (MLV-Amphotropic Env): not inhibited
- effect on ASLV-A Env mediated infection (ASLV-A Env): no effect
- concentration necessary to achieve 95% inhibition of S protein-mediated entry (SARS-CoV S protein [1]): 100 µg/mL
- inhibition at 10 µg/mL (SARS-CoV S protein [1]; Severe acute respiratory syndrome coronavirus, HEK-293T, 10 μg/ml, read-out: inhibition of entry mediated by SARS-CoV S protein): > 95%
- effect on SARS-CoV replication (SARS-CoV (strain Tor2)): little or no effect
- effect on infection by replication-competent SARS-CoV (SARS-CoV (strain Tor2)): inhibited
- effect on S protein-mediated intervirion fusion (luciferase activity) (SARS-CoV S protein [8]): S protein-mediated fusion was lost
- hit in cathepsin L microarray screen (human cathepsin L): inhibitors and hits
- effect on infection mediated by VSV-G (VSV-G): not inhibited

Compound: CC(C)CC(=O)N[C@H](C(=O)N[C@H](C(=O)N[C@@H](CC(C)C)[C@@H](O)CC(=O)N[C@@H](C)C(=O)N[C@@H](CC(C)C)[C@@H](O)CC(=O)O)C(C)C)C(C)C [pepstatin] (Isovaleryl-VV[Sta]A[Sta]-OH)
- effect on infection by pseudotypes bearing S protein (SARS-CoV S protein [1]): had no effect
- effect on VSV-G mediated infection (VSV-G): had no effect

Compound: aprotinin
- effect on infection by pseudotypes bearing S protein (SARS-CoV S protein [1]): had no effect
